We go through six molecules from patent US5294611A, “Angiotensin II receptor blocking 2,3,6 substituted quinazolinones” (American Cyanamid Company, priority 1993, dated 1994).

For orientation: IC50 means the concentration needed to halve the response being measured. High values mean lower potency, low ones higher potency.

The assay addresses T1, Angiotensin II Receptor (Bos taurus, UniProt P25104).
T1 construct: The brownish tissue forming the adrenal cortex is scraped off and finely minced with scissors before homogenization; tissue local slaughter house (maxwell-Cohen); host or cells: beef adrenal cortex, 100,000 x g microsomal membranes
T1 sequence (P25104 1-359): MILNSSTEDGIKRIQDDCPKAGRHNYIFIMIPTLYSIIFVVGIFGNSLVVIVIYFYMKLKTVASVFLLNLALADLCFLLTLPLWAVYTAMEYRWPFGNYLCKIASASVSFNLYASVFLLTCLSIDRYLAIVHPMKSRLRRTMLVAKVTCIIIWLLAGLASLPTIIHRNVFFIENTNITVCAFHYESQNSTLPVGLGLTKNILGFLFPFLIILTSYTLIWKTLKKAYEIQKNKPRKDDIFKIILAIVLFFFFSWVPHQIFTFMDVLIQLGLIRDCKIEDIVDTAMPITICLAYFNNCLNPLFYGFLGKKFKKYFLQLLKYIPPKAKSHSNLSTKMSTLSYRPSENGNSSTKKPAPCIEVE
Briefly: Receptor Binding Assay: displacement of [^125 I](Sar^1,Ile^8)AngII from adrenal cortex microsomal membranes. More on the design: species or system beef (bovine adrenals). The text has this: Beef adrenals are obtained from a local slaughter house (maxwell-Cohen). [^125 I](Sar^1,Ile^8)AngII, S.A. 2200 Ci/mmole, is purchased from Dupont (NEN®, Boston, Mass.). All unlabeled AngII analogs, Dimethylsulfoxide (DMSO), nucleotides, bovine serum albumin (BSA) are purchased from Sigma Chemical Co., St. Louis, Mo. U.S.A.
Approximately sixteen (16) to twenty (20) beef adrenal glands are processed as follows: fresh adrenal glands received on crushed ice are cleaned of fatty tissues and the tough membranes encapsulating the glands are removed and discarded. The brownish tissue forming the adrenal cortex is scraped off and finely minced with scissors before homogenization. Care is taken to avoid contamination with medullary tissue during dissection. The scraped cortices are suspended in twenty volumes of an ice-cold buffer medium consisting of 10 mM Tris.HCl (pH 7.4 at 22° C.) and containing 1.0 mM EDTA and 0.2M sucrose. Unless otherwise indicated, all subsequent operations are done at 4° C. […] The homogenate is centrifuged first at low speed (3,000× g) for 10 min. The resulting pellet is discarded and the supernatant fluid recentrifuged at 10,000× g for 15 minutes to give a P2 pellet. This P2 pellet is discarded and the liquid phase is carefully decanted off in clean centrifuge tubes and recentrifuged at high speed (100,000× g) for 60 min. The translucent final pellet is harvested and combined in a small volume (20-50.0 ml) of 50.0 mM Tris.HCl buffer, pH 7.2. A 100 ul aliquot is withdrawn and the protein content of the preparation is determined by the Lowry's method (Lowry, O. H., Rosebrough, N. F., Parr, A. L. and Randall, R. J., Protein measurement with Folin phenol reagent. J. Biol. Chem., 48, 265-275; 1951). The pelleted membrane is reconstituted in 50.0 mM Tris.HCl buffer containing 0.1 mM of phenylmethylsulfonyl fluoride (PMSF) to give approximately a protein concentration of 2.5 mg per ml of tissue suspension. The membrane preparation is finally aliquoted in 1.0 ml volumes and stored at -70° C. until use in the binding assays.
The binding of [^125 I](Sar^1,Ile^8)AngII to microsomal membranes is initiated by the addition of reconstituted membranes (1:10 vols.) in freshly made 50.0 mM Tris.HCl buffer, pH 7.4 containing 0.25% heat inactivated bovine serum albumin (BSA): 80 ul membrane protein (10 to 20 ug/assay) to wells already containing 100 ul of incubation buffer (as described above) and 20 ul [^125 I](Sar^1,ILE^8)AngII (Specific Activity, 2200 Ci/mmole). Non-specific binding is measured in the presence of 1.0 uM unlabeled (Sar^1,ILE^8)AngII, added in 20 ul volume. […] In competition studies, experimental compounds are diluted in dimethylsulfoxide (DMSO) and added in 20 ul to wells before the introduction of tissue membranes. […] Assays are performed in triplicate. The wells are left undisturbed for 60 min. at room temperature. Following incubation, all wells are harvested at once with a Brandel® Harvester especially designed for a 96 well plate (Brandel® Biomedical Research & Development Labs. Inc., Gaithersburg, Md., U.S.A.). The filter discs are washed with 10×1.0 ml of cold 0.9% NaCl to remove unbound ligand. […] This method is routinely used. The filters are removed from the filter grid and counted in a Parkard® Cobra Gamma Counter for 1 min. (Packard Instrument Co., Downers Grove, Ill., U.S.A.). The binding data are analyzed by the non-linear interactive "LUNDON-1" program (LUNDON SOFTWARE Inc., Cleveland, Ohio U.S.A.).
`CCCCc1nc2ccc([C@H]3[C@@H]4C(=O)OC[C@@H]4ON3Cc3ccccc3)cc2c(=O)n1Cc1ccc(-c2ccccc2-c2nnn[nH]2)cc1` (relative stereo) [Example 57] yielded an IC50 of 180 nM. Take `CCCCc1nc2ccc([C@H]3[C@@H]4C(=O)CC[C@@H]4ON3C)cc2c(=O)n1Cc1ccc(-c2ccccc2-c2nnn[nH]2)cc1` (relative stereo) [Example 48]: the 50% inhibitory concentration (IC50) amounted to 57 nM. With `CCCCc1nc2ccc([C@H]3[C@@H]4C5CCC(C5)[C@@H]4ON3C)cc2c(=O)n1Cc1ccc(-c2ccccc2-c2nnn[nH]2)cc1` (stereo partly drawn) [Example 51] the figure was 150 nM. In turn, `CCCCc1nc2ccc([C@H]3[C@@H]4C(=O)OC[C@@H]4ON3C)cc2c(=O)n1Cc1ccc(-c2ccccc2-c2nnn[nH]2)cc1` (relative stereo) [Example 53] displayed an IC50 of 71 nM. In turn, `CCCCc1nc2ccc([C@@H]3[C@H]4C(=O)CCC[C@H]4ON3C)cc2c(=O)n1Cc1ccc(-c2ccccc2-c2nnn[nH]2)cc1` (relative stereo) [Example 49] registered a 50% inhibitory concentration (IC50) of 880 nM. `CCCCc1nc2ccc([C@H]3[C@@H]4C(=O)CC[C@@H]4ON3Cc3ccccc3)cc2c(=O)n1Cc1ccc(-c2ccccc2-c2nnn[nH]2)cc1` (relative stereo) [Example 55] returned an IC50 of 78 nM.
